In US20050049273A1, “Acridone derivatives as anti-herpesvirus agents” (priority 2003, published 2005):
Read-outs that look alike come from different tables or passages of the source.

Columns and labels:
[1] = system: HSV; settings: published work; cited from earlier work
[2] = system: HSV-2; assay: HSV-2 viral yield-reduction assay in Vero cells; assay type: cell-based, HSV-2 (strain 186); settings: for EC50: read-out: ED50 HSV-2
Description: (§1) Three types of antiviral assay were used for HSV studies. For plaque-elimination, Vero cells (70000 per cm^2) were infected with 50-100 PFU for 30 minutes with occasional agitation. The inoculate was replaced with medium containing 1% (v/v) fetal calf serum and supplemented with test agents as indicated (see below). After two days of culture, cells were processed using crystal violet staining and plaques were scored by visual examination (FIG. 3). For examination of anti-HSV activity in parallel cultures during biochemical experiments, the progeny virus obtained from cells and from the culture medium at 23 hours post-infection was determined by limiting dilution on Vero cells (FIG. 5A). Macroscopic viral plaques were scored after two days of incubation in medium containing 1% (w/v) carboxymethylcellulose and 0.5% (v/v) fetal calf serum. For ED50 measurements, the concentration of compound that reduced a single-cycle of viral yield by 50% relative to the control and under the specified condition was interpolated from dose-response graphs (FIG. 4, Table 1). Over the course of ten independent experiments, the mean cell-associated viral yield was 180 PFU per cell (SD=80) and 10 PFU per cell (SD=5) for HSV-1 and HSV-2 respectively. The percent viral release (into the culture medium) was 16 (SD=7) and 0.9 (SD=0.6) for HSV-1 and HSV-2 respectively. These virologic parameters were independent of viral load and serum concentration.

[3] = system: HSV-1; assay: HSV-1 viral yield-reduction assay in Vero cells; assay type: cell-based, HSV-1 (KOS); settings: for EC50: read-out: ED50 HSV-1
Description: as §1

[4] = Vero cell growth inhibition (Sulforhodamine B protein-dye binding); assay type: cell-based, African green monkey; settings: African green monkey
Description: (§2) The effect of compounds on host cell replication (CC50), was measured using Sulforhodamine B-staining and the spectrophotometric method originally developed for the NCIs's in vitro anti-cancer drug screening program (P. Skehan et al., J. Natl. Cancer. Inst. 82, 1107-1112 (1990)). The CC50 value is the concentration of compound that inhibited actively replicating cells by 50% of control respectively after two days of continuous treatment.

[5] = system: Vero; assay: as above; assay type: cell-based, African green monkey; settings: for percent inhibition observed at the highest concentration tested, Vero growth: number in parenthesis
Description: as §2

[6] = HEL cell growth inhibition (Sulforhodamine B protein-dye binding); assay type: cell-based, human; settings: human, cell growth inhibition, two days of continuous treatment
Description: as §2

[7] = system: HCMV; assay: HCMV plaque-elimination assay in HEL cells; assay type: cell-based, HCMV (Towne); settings: for EC50: read-out: ED50 HCMV; for activity against HCMV, in words: quantitative comparison, Table 1; for percent inhibition observed at the highest concentration tested, HCMV: number in parenthesis, NA = no activity observed; for inhibition of HCMV replication in plaque-elimination screen: fixed concentration, five micromolar (1, 2, ACV ten micromolar; PFA 250 micromolar), FIG. 3
Description: Virus and cell growth inhibition assays. Established virus culture techniques were used (E.-S. Huang, and T Kowalnick, Diagnosis of human cytomegalovirus infection: laboratory approaches, in Molecular Aspects of Human Cytomegalovirus Diseases (Becker,Y., Daria, G., and Huang, E.-S. eds.), Springer-Verlag, Berlin, pp. 225-255 (1993); Akanitapichat et al., Antiviral Research 45: 123-134 (2000)) but with the following modifications. For the HCMV plaque-elimination assay, HEL cells were plated in standard medium at 60,000 per cm^2 and infected the following day with 50-100 PFU HCMV for 90 minutes with occasional agitation. The inoculate was replaced with maintenance medium containing 5% (v/v) fetal calf serum and test agents as indicated (see below). After an additional 6-10 days of culture, cells were fixed with formal saline (10% formalin in phosphate-buffered saline; PBS), stained with 0.1% (w/v) toluidine blue in PBS and plaques were scored using an inverted light microscope at 40x magnification (FIGS. 2A and 3). For ED50 determination, the value was interpolated from dose-response data and is the concentration of compound that reduced plaque formation by 50% relative to control under the specified condition.

[8] = system: HSV-1 proteins; assay: HSV-1 viral protein accumulation (Western immunoblot); assay type: cell-based; settings: 10 micromolar, 16 hours, 2% (v/v) serum, FIG. 5D
[9] = system: HSV-2 late viral proteins; assay: HSV-2 late viral protein synthesis (pulse labeling, SDS-PAGE, phosphor-imaging); assay type: cell-based; settings: twenty micromolar, 0.1 PFU, 2% (v/v) serum
Description: Analysis of HSV proteins. Viral protein synthesis was examined using pulse labeling, SDS-PAGE gel separation and phosphor-imaging. Vero cells were infected and treated under conditions specified below and in FIG. 5. After 17 hours of infection, 10 μCi/mL TRAN^35S-LABEL ™ was added directly to culture medium and incubation continued for 30 more minutes. Radio-labeled cell cultures were carefully washed with PBS pre-warmed to 37° C. then lysed at 2,000,000 cells per mL in the same buffer supplemented with 2% (w/v) SDS. After denaturing cell lysates in Laemmli loading buffer, total proteins recovered from 30,000 cells were separated using either 8% (FIG. 5B) or 10% (FIG. 5D) PAGE-SDS gels (U. Laemmli, Nature, 227,680-685 (1970)). Proteins were transferred to nitrocellulose and the synthesized proteins were visualized and quantified using a STORM phosphorimager (Molecular Devices, Sunnyvale CA) and the supplied ImageQuant software according to the manufacturers instructions (FIG. 5, panels B and C). Protein load between samples was compared qualitatively by visual examination of filters stained with India-Ink. A complementary approach for assessing drug effect on viral proteins involved immune detection on a Western-blot using conditions and reagents described previously (Akanitapichat and Bastow, supra 2002).

[10] = system: HEL; assay: HEL cell growth inhibition (Sulforhodamine B protein-dye binding); assay type: cell-based, human; settings: for percent inhibition observed at the highest concentration tested, HEL growth: number in parenthesis, NA = no activity observed
Description: as §2

[11] = system: HSV-2; assay: HSV-2 plaque-elimination assay in Vero cells; assay type: cell-based, HSV-2 (strain 186); settings: fixed concentration, five micromolar (1, 2, ACV ten micromolar; PFA 250 micromolar), Vero cells, FIG. 3
Description: as §1

[12] = system: host cell replication; assay: Host cell replication (CC50), host cell not specified; assay type: cell-based; settings: mean CC50
Description: as §2

[13] = Human alphaherpesvirus 2, viral yield-reduction, 1 PFU per cell in 5% (v/v) serum, Vero cells
[14] = Human alphaherpesvirus 1, viral yield-reduction, 1 PFU per cell in 5% (v/v) serum, Vero cells
[15] = Vero cells, cell growth inhibition, two days of continuous treatment, read-out: CC50 Vero
[16] = Human betaherpesvirus 5, prevention of microscopic viral plaques, HEL cells
[17] = quantitative comparison, Table 1
[18] = cell growth inhibition, two days of continuous treatment

For O=c1c2cc(O)ccc2[nH]c2cc(O)cc(O)c12 [1,3,7-trihydroxyacridone], the “selectivity of anti-HSV action” value [1] is listed as 3 fold.

With Nc1nc2c(ncn2COCCO)c(=O)[nH]1 [ACV, Acyclovir] the “activity against HSV-2 relative to HSV-1” value [2] was “four-fold less active”, the EC50 [2, 13] was 0.8 ± 0.1 µM and the EC50 [3, 14] was 0.2 µM. For the same compound, the CC50 at 2 days [4, 15] was over 200 µM, the “percent inhibition observed at the highest concentration tested, Vero growth” value (from here on “percent inhibition observed … Vero growth”) [5] was 41% and the CC50 at 2 days ([6]; HEL cells) was over 500 µM. For the same compound, the EC50 [7, 16] was over 200 µM, the “activity against HCMV, in words” value [7] was “inactive” and the “effect on HSV-1 viral protein accumulation” value [8] was “abolished”.

In the case of COc1cc(O)c2c(=O)c3cccc(O)c3n(C)c2c1OC [Citrusinine-I], the “activity against HSV-2, in words” value [2, 17] is reported as “selective inhibitor”, the HSV-2 replication remaining ([2]; twenty micromolar, 0.1 PFU, 22 hours, 2% (v/v) serum) is reported as “about 10 % of control” and the “activity against HSV-1 (KOS), in words” value [3, 17] is reported as “inactive”. For the same compound, the CC50 [5, 18] was 27 ± 4 µM, the “HSV-2 late protein synthesis remaining” value [9] was “about 10 % of control” and the CC50 [10, 18] was 41 ± 5 µM. For the same compound, the “activity against HCMV, in words” value [7] was “selective inhibitor” and the “inhibition of HSV-2 replication in plaque-elimination screen” value [11] was “HSV plaque-size was uniformly smaller in the presence of Citrusinine I but the number of visible plaques was not reduced”.

O=c1c2cccc(Cl)c2[nH]c2cc(O)cc(O)c12 [Compound 1, 5-chloro-1,3-dihydroxyacridone] showed an EC50 ([2]; Human alphaherpesvirus 2, Vero) of 3.8 ± 0.3 µM, an EC50 ([3]; Human alphaherpesvirus 1, Vero) of 4.3 ± 0.8 µM and a CC50 at 2 days ([4]; cell growth inhibition, two days of continuous treatment, read-out: CC50 Vero) of over 50 µM. The “percent inhibition observed … Vero growth” value [5] was 23%, the “percent inhibition observed at the highest concentration tested, HEL growth” value (“percent inhibition observed … HEL growth” below) [10] was 18% and the CC50 at 2 days [6] was over 50 µM. For the same compound, the EC50 ([7]; Human betaherpesvirus 5, HEL) was over 50 µM, the “percent inhibition observed at the highest concentration tested, HCMV” value [7] was 25% and the “selectivity of anti-HSV action” value [1] was 26 fold.

In the case of COc1ccc2[nH]c3cc(O)cc(O)c3c(=O)c2c1 [Compound 3, 1,3-Dihydroxy-7-methoxyacridone], the “inhibition of HCMV replication in plaque-elimination screen” value (from here on “inhibition of HCMV replication”) ([7]; HEL cells) is reported as “inactive” and the “inhibition of HSV-2 replication in plaque-elimination screen” value [11] is reported as “inactive”.

For COc1cc(O)c2c(=O)c3cc(O)ccc3[nH]c2c1 [Compound 4, 1,7-Dihydroxy-3-methoxyacridone], the CC50 at 2 days ([4]; Vero cells, read-out: CC50 against Vero replication) was 25 µM and the “inhibition of HSV-2 replication in plaque-elimination screen” value [11] was “only inhibited HSV replication”.

In the case of COc1cc(O)c2c(=O)c3cccc(OC)c3[nH]c2c1 [Compound 5, 3,5-Dimethoxy-1-hydroxyyacridone], the “inhibition of HCMV replication” value ([7]; HEL cells) is reported as “inactive”, the “inhibition of HSV-2 replication in plaque-elimination screen” value [11] is reported as “inactive” and the CC50 [12] is reported as 33 µM.

With COc1ccc2[nH]c3cc(OC(C)C)cc(O)c3c(=O)c2c1 [Compound 8, 1-Hydroxy-3-isopropoxy-7-methoxyacridone] the viral release ([2]; 10 μM in 2% (v/v) serum, 0.001 PFU per cell HSV-2, up to forty-eight hours after infection) was “completely prevented viral release”, the inhibition at 10 µM ([2]; Human alphaherpesvirus 2, Vero, 10 μM in 2% (v/v) serum, 0.001 PFU per cell HSV-2, forty-eight hours, read-out: inhibition of production of cell-associated virus) was 80% and the “inhibition of HCMV replication” value ([7]; HEL cells) was “almost completely preventing the formation of microscopic viral plaques”. The “inhibition of HSV-2 replication in plaque-elimination screen” value [11] was “almost completely preventing the formation of microscopic viral plaques”.

With COc1ccc2[nH]c3cc(OCc4ccccc4)cc(O)c3c(=O)c2c1 [Compound 9, 3-Benzyloxy-1-hydroxy-7-methoxyacridone] the “anti-HCMV activity relative to compound 2” value [7] was “about five-fold less active than 2”, the EC50 [7, 16] was 6.9 ± 0.6 µM and the “inhibition of HCMV replication” value ([7]; HEL cells) was “inhibited HCMV but not HSV-2 replication”. The “inhibition of HSV-2 replication in plaque-elimination screen” value [11] was “inhibited HCMV but not HSV-2 replication”.

For C=CCOc1cc(O)c2c(=O)c3cc(OC)ccc3[nH]c2c1 [Compound 10, 3-Allyloxy-1-hydroxy-7-methoxyacridone], the “selectivity, inhibition of HSV-2 replication” value [2] was 24 fold, the EC50 [2, 13] was 3.9 ± 1 µM and the “selectivity, inhibition of HSV-1 replication” value [3] was 41 fold. The “change of ED50 concentration for inhibition of viral release” value ([3]; HSV-1, low viral load (0.01 PFU) and low serum (0.5% v/v), FIG. 4 panel D) was “decreased about six-fold”, the inhibition at 10 µM ([3]; Human alphaherpesvirus 1, Vero, 10 micromolar, 16 hours, 2% (v/v) serum, various viral loads, FIG. 5D, read-out: inhibition of HSV-1 viral replication) was 64 to 95% and the EC50 [3, 14] was 2.3 ± 0.3 µM. The CC50 at 2 days [4, 15] was 95 ± 2 µM, the “percent inhibition observed … HEL growth” value [10] was 33% and the CC50 at 2 days ([6]; HEL cells) was over 50 µM. The “inhibition of HCMV replication” value ([7]; HEL cells) was “almost completely preventing the formation of microscopic viral plaques”, the “percent inhibition observed at the highest concentration tested, HCMV” value [7] was 80% and the “activity against HCMV, in words” value [7] was “at least as active as the 3,7-dimethoxy lead (2)”. The “inhibition of HSV-2 replication in plaque-elimination screen” value [11] was “almost completely preventing the formation of microscopic viral plaques” and the “effect on HSV-1 viral protein accumulation” value [8] was “no effect”.

For COc1cc(O)c2c(=O)c3cc(OC(C)C)ccc3[nH]c2c1 [Compound 13, 1-Hydroxy-7-isopropoxy-3-methoxyacridone], the CC50 at 2 days ([6]; HEL cells) was 12 µM and the “inhibition of HCMV replication” value ([7]; HEL cells) was “active”.

In the case of O=C(O)P(=O)(O)O [PFA, phosphonoformic acid], the EC50 ([2]; Human alphaherpesvirus 2, Vero) is reported as 60 ± 5 µM, the CC50 at 2 days [4, 15] is reported as over 500 µM and the “percent inhibition observed … Vero growth” value [5] is reported as 11%. For the same compound, the “percent inhibition observed … HEL growth” value [10] was 11%, the CC50 at 2 days ([6]; HEL cells) was over 500 µM and the EC50 [7, 16] was 70 ± 10 µM.
